Data from patent US20230130766A1 (SALK INSTITUTE FOR BIOLOGICAL STUDIES, priority 2020, published 2023).

Target: T1, ULK1 (Homo sapiens, UniProt O75385)
T1 sequence (O75385 1-1050): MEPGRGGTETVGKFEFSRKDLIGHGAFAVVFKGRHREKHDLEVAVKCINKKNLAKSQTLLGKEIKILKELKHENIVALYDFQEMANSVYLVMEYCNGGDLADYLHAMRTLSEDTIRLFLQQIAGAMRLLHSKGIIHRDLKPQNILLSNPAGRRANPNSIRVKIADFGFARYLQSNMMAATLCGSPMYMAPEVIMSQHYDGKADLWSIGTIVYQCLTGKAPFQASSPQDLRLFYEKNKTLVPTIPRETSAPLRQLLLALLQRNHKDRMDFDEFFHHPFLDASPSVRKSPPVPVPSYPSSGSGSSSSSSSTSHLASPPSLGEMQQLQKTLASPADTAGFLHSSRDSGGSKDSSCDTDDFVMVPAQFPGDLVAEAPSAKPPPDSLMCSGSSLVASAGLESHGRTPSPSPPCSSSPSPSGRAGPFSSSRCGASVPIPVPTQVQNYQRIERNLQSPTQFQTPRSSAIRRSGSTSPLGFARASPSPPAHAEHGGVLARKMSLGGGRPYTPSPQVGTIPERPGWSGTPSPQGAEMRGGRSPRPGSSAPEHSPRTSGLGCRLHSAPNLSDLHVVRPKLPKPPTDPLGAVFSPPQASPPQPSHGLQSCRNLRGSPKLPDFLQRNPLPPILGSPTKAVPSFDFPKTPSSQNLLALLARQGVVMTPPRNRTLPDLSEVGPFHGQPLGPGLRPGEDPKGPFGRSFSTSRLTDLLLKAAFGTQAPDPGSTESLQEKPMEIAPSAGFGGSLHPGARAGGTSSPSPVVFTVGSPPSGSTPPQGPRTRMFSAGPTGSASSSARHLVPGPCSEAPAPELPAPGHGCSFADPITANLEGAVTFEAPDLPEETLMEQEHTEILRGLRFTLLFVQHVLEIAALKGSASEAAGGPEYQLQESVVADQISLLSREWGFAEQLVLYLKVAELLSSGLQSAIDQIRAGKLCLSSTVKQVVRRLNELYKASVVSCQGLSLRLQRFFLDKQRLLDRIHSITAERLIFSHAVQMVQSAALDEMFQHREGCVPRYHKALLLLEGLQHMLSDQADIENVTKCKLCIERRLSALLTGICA
Test: ULK1 inhibition assay
Type: biochemical
Settings: * = tested as a mixture of regioisomers

Structure (SMILES) | IC50 [nM]
FC(F)(F)c1cnc(Nc2cccc(Cl)c2Cl)nc1Nc1ccc2c(c1)OCO2 [147*] | > 2000
CNC(=O)c1ccccc1Nc1nc(Nc2ccc(N3CCOCC3)cc2OC)ncc1Cl [Compound 12] | < 200
CNC(=O)c1ccccc1Nc1nc(Nc2cc(OC)c(OC)c(OC)c2)ncc1Cl [Compound 15] | < 200
CNC(=O)c1ccccc1Nc1nc(Nc2cc(OC)ccc2C)ncc1Cl [Compound 16] | < 200
CNC(=O)c1ccccc1Nc1nc(Nc2cc(OC)ccc2C)ncc1Br [Compound 17] | < 200
COc1cc(Nc2ncc(Br)c(Nc3ccccn3)n2)cc(OC)c1OC [Compound 22] | < 200
CNC(=O)c1ccccc1Nc1nc(Nc2ccc3[nH]ccc3c2)ncc1Br [Compound 23] | < 200
COc1ccc(Nc2nc(Nc3cc(OC)c(OC)c(OC)c3)ncc2Cl)cn1 [Compound 24] | < 200
COc1ccc(Nc2nc(Nc3cc(OC)c(OC)c(OC)c3)ncc2Br)cn1 [Compound 25] | < 200
COc1ccc(Nc2nc(Nc3ccc(N4CCOCC4)cc3OC)ncc2Cl)cn1 [Compound 27] | > 2000
COc1ccc(Nc2nc(Nc3ccc4[nH]ccc4c3)ncc2Br)cn1 [Compound 30] | < 200
COc1cc(Nc2ncc(C(F)(F)F)c(NCc3cccc(S(C)(=O)=O)c3)n2)cc(OC)c1OC [Compound 31] | < 200
COc1ccc(C)c(Nc2ncc(Cl)c(Nc3ccc(OC)nc3)n2)c1 [Compound 34] | > 2000
COc1ccc(C)c(Nc2ncc(Br)c(Nc3ccc(OC)nc3)n2)c1 [Compound 35] | > 2000
CNC(=O)c1ccccc1Nc1nc(Nc2cc(OC)c(OC)c(OC)c2)ncc1C(F)(F)F [Compound 36] | > 2000
COc1ccc(Nc2nc(Nc3cc(OC)c(OC)c(OC)c3)ncc2C(F)(F)F)cn1 [Compound 37] | < 200
CNC(=O)c1ccccc1Nc1nc(Nc2ccc(N3CCOCC3)cc2OC)ncc1C(F)(F)F [Compound 39] | < 200

Structure (SMILES) | IC50 [nM]
COc1ccc(Nc2nc(Nc3ccc(N4CCOCC4)cc3OC)ncc2C(F)(F)F)cn1 [Compound 40] | > 2000
COc1ccc(C)c(Nc2ncc(Cl)c(NCc3cccc(S(C)(=O)=O)c3)n2)c1 [Compound 41] | > 2000
CNC(=O)c1ccccc1Nc1nc(Nc2cccc(OC)c2)ncc1Cl [Compound 44] | < 200
COc1ccc(C)c(Nc2ncc(Cl)c(Nc3cccc(S(=O)(=O)N(C)C)c3)n2)c1 [Compound 45] | > 2000
CNC(=O)c1ccccc1Nc1nc(Nc2ccc3c(c2)OCO3)ncc1Cl [Compound 49] | < 200
CNC(=O)c1ccccc1Nc1nc(Nc2ccc3c(c2)OCCO3)ncc1Cl [Compound 51] | < 200
COc1cc(N2CCOCC2)ccc1Nc1ncc(C(F)(F)F)c(NCc2cccc(S(C)(=O)=O)c2)n1 [Compound 52] | > 2000
CNC(=O)c1ccccc1Nc1nc(Nc2ccccc2C)ncc1Cl [Compound 53] | > 2000
COc1ccc(C)c(Nc2ncc(Cl)c(Nc3cccc(CC#N)c3)n2)c1 [Compound 54] | > 2000
COc1ccc(C)c(Nc2ncc(Cl)c(Nc3nccc(C)n3)n2)c1 [Compound 55] | > 2000
CNC(=O)c1ccccc1Nc1nc(Nc2cc3c(cc2C)OCO3)ncc1Cl [Compound 57] | < 200
CNC(=O)c1ccccc1Nc1ccnc(Nc2cc(OC)c(OC)c(OC)c2)n1 [Compound 60] | < 200
CNC(=O)c1ccccc1Nc1nc(Nc2cc(OC)c(OC)c(OC)c2)ncc1/C=C/c1ccccc1 [Compound 71] | < 200
CNC(=O)c1ccccc1Nc1nc(Nc2cc(OC)c(OC)c(OC)c2)ncc1-c1ccccc1 [Compound 73] | < 200
COc1cc(N2CCOCC2)ccc1Nc1ncc(Br)c(Nc2ccccc2S(=O)(=O)N(C)C)n1 [Compound 80] | < 200
CNC(=O)c1ccccc1Nc1nc(Nc2cc(N3CCOCC3)cc(N3CCOCC3)c2)ncc1C(F)(F)F [Compound 90] | < 200
Oc1nc(Nc2ccc(Cl)c(Cl)c2)ncc1C(F)(F)F [Compound 108b] | > 2000

More lines, now with the values ahead:

IC50 [nM] | Structure (SMILES)
< 200 | O=C1CCc2cc(Nc3ncc(C(F)(F)F)c(Nc4ccc5c(c4)OCO5)n3)ccc2N1 [124*]
> 2000 | COc1cccc(Nc2nc(Nc3ccc(OC(F)(F)F)c(Cl)c3)ncc2C(F)(F)F)c1 [136*]
200 to 2000 | COc1cccc(Nc2nc(Nc3cc4ccccc4cc3O)ncc2C(F)(F)F)c1 [137*]
< 200 | NC(=O)c1cccc(Nc2ncc(C(F)(F)F)c(Nc3ccc4c(c3)OCO4)n2)c1 [138*]
< 200 | FC(F)(F)c1cnc(Nc2ccc(-n3cccc3)cc2)nc1Nc1ccc2c(c1)OCO2 [139*]
< 200 | FC(F)(F)c1cnc(Nc2ccc3c(c2)CCC3)nc1Nc1ccc2c(c1)OCO2 [140*]
< 200 | COc1ccc(Nc2ncc(C(F)(F)F)c(Nc3ccc4c(c3)OCO4)n2)cc1 [144*]
> 2000 | FC(F)(F)c1cnc(Nc2cccc(Oc3ccccc3)c2)nc1Nc1ccc2c(c1)OCO2 [149*]
< 200 | O=C1CCc2cc(Nc3ncc(C(F)(F)F)c(Nc4ccccc4)n3)ccc2N1 [157*]
< 200 | CNC(=O)c1ccccc1Nc1nc(Nc2ccc3c(c2)CCC(=O)N3)ncc1Cl [Compound 19]
< 200 | CNC(=O)c1ccccc1Nc1nc(Nc2ccc3c(c2)CCC(=O)N3)ncc1Br [Compound 20]
< 200 | CNC(=O)c1ccccc1Nc1nc(Nc2ccc3c(c2)CC(=O)N3)ncc1Cl [Compound 21]
< 200 | CNC(=O)c1ccccc1Nc1nc(Nc2cc(OC)ccc2C)ncc1C(F)(F)F [Compound 42]
< 200 | O=C1CCc2cc(Nc3ncc(C(F)(F)F)c(NCc4ccccc4)n3)ccc2N1 [Compound 43]
> 2000 | COc1ccc(C)c(Nc2ncc(C(F)(F)F)c(NCc3cccc(S(C)(=O)=O)c3)n2)c1 [Compound 50]
> 2000 | CS(=O)(=O)c1cccc(CNc2nc(Nc3ccc4c(c3)CCC(=O)N4)ncc2F)c1 [Compound 56]
> 2000 | O=C1CCc2cc(Nc3ncc(C(F)(F)F)c(Nc4nccs4)n3)ccc2N1 [Compound 58]
< 200 | N#CCc1cccc(Nc2nc(Nc3ccc4c(c3)CCC(=O)N4)ncc2C(F)(F)F)c1 [Compound 61]
< 200 | O=C1CCc2cc(Nc3ncc(C(F)(F)F)c(SCc4ccccc4)n3)ccc2N1 [Compound 62]
> 2000 | O=C1CCc2cc(Nc3ncc(C(F)(F)F)c(C#Cc4ccccc4)n3)ccc2N1 [Compound 64]

IC50 [nM] | Structure (SMILES)
> 2000 | Cc1cnc(Nc2ccc3c(c2)CCC(=O)N3)nc1NCc1cccc(S(C)(=O)=O)c1 [Compound 67]
< 200 | O=C1CCc2cc(Nc3ncc(C(F)(F)F)c(/C=C/c4ccccc4)n3)ccc2N1 [Compound 69]
> 2000 | O=C1CCc2cc(Nc3ncc(C(F)(F)F)c(-c4ccccc4)n3)ccc2N1 [Compound 72]
< 200 | CNC(=O)c1ccccc1Nc1nc(Nc2ccc3c(c2)CCC(=O)N3)ncc1C(F)(F)F [Compound 76]
< 200 | O=C1CCc2cc(Nc3ncc(C(F)(F)F)c(OCc4ccccc4)n3)ccc2N1 [Compound 81]
< 200 | COc1c(C)cnc(CNc2nc(Nc3ccc4c(c3)CCC(=O)N4)ncc2C(F)(F)F)c1C [Compound 82]
< 200 | Cc1cccc(Oc2nc(Nc3ccc4c(c3)CCC(=O)N4)ncc2C(F)(F)F)c1C [Compound 83]
< 200 | CNC(=O)c1ccccc1Nc1nc(Nc2ccc3c(c2)CCC(=O)N3)ncc1-c1ccccc1 [Compound 89]
< 200 | CNC(=O)c1ccccc1Oc1nc(Nc2cc(OC)c(OC)c(OC)c2)ncc1C(F)(F)F [Compound 92]
> 2000 | CNC(=O)c1ccccc1Oc1nc(Nc2ccccc2)ncc1C(F)(F)F [Compound 99]
> 2000 | CNC(=O)c1ccccc1Oc1nc(Nc2cc(Br)ccc2C)ncc1C(F)(F)F [Compound 100]
> 2000 | CNC(=O)c1ccccc1Oc1nc(Nc2cc(OC)ccc2C)ncc1C(F)(F)F [Compound 101]
> 2000 | CNC(=O)c1ccccc1Oc1nc(Nc2ccc(C)c(Br)c2)ncc1C(F)(F)F [Compound 102]
> 2000 | CNC(=O)c1ccccc1Oc1nc(Nc2ccccc2OC)ncc1C(F)(F)F [Compound 103]
> 2000 | CNC(=O)c1ccccc1Oc1nc(Nc2cc(C)ccc2C)ncc1C(F)(F)F [Compound 104]
> 2000 | CNC(=O)c1ccccc1Oc1nc(Nc2ccc(OC)cc2)ncc1C(F)(F)F [Compound 105a]
> 2000 | COc1ccc(Nc2ncc(C(F)(F)F)c(O)n2)cc1 [Compound 105b]
> 2000 | CNC(=O)c1ccccc1Oc1nc(Nc2ccc(C)cc2Cl)ncc1C(F)(F)F [Compound 107]
> 2000 | CNC(=O)c1ccccc1Oc1nc(Nc2ccc(Cl)c(Cl)c2)ncc1C(F)(F)F [Compound 108a]
